The source of these data is ChEMBL document CHEMBL2401710, “Design, synthesis and structure-activity relationships of zwitterionic spirocyclic compounds as potent CCR1 antagonists” (Bioorg Med Chem Lett, 2013).

Molecules are shown by their SMILES.

The term half-life denotes how long it takes for the measured level to halve. Lower therefore signals fast loss. By IC50 is commonly meant the concentration needed to halve the response being measured.

The first data set is described as follows: Half life in rat at 5 mg/kg, iv. Format: ADME, organism-based. Also on record: dose 5 mg/kg, route intravenous. To be noted: in vivo.
Compound `CN(C)CC(C)(C)COc1cccc(-c2sc(Nc3cccnc3Oc3ccccc3C(C)(C)C)nc2C(F)(F)F)c1` gave a half-life of 2.1 h.

The nature of another data set: Antiplatelet activity in human platelet-rich plasma assessed as inhibition of ADP-induced platelet aggregation. Format: functional, cell-free.
Conditions: not given
In the case of `CC(C)(C)c1ccccc1Oc1ncccc1Nc1nc(C(F)(F)F)c(-c2ccccc2)s1`, the half-maximal inhibitory concentration (IC50) stood at 5.2 µM.

The next data set can be described thus: Antiplatelet activity in human platelet-rich plasma assessed as ADP-induced platelet aggregation at 10 uM relative to control. Format: functional.
Conditions: not given
For the compound `CN(C)C(=O)c1nc(Nc2cccnc2Oc2ccccc2C(C)(C)C)sc1-c1ccccc1`, the Activity is on record as 100%.
On the same count and under the same terms, then `Cc1sc(Nc2cccnc2Oc2ccccc2C(C)(C)C)nc1C(F)(F)F`, with 96%.
On the same count and under the same terms, then `COc1cccc(-c2sc(Nc3cccnc3Oc3ccccc3C(C)(C)C)nc2C(F)(F)F)c1`, with 41%; and `Cc1ccccc1-c1sc(Nc2cccnc2Oc2ccccc2C(C)(C)C)nc1C(F)(F)F`, with 54%; and `CC(C)(C)c1ccccc1Oc1ncccc1Nc1nc(C(F)(F)F)c(-c2ccccc2O)s1`, with 99%.
As to `CCOC(=O)c1sc(Nc2cccnc2Oc2ccccc2C(C)(C)C)nc1C(F)(F)F`, the Activity turned out to be 50%.
The same measure, in the same setting: then `CC(C)(C)c1ccccc1Oc1ncccc1Nc1nc(C(F)(F)F)c(C#N)s1`, with 101%; and `CN(C)CC(C)(C)COc1cccc(-c2sc(Nc3cccnc3Oc3ccccc3C(C)(C)C)nc2C(F)(F)F)c1`, with 17%.
With `CC(C)(C)c1ccccc1Oc1ncccc1Nc1nc(C(C)(C)CC(=O)O)c(-c2ccccc2)s1`, the Activity is listed as 89%.
For the compound `CC(C)(C)c1ccccc1Oc1ncccc1Nc1nc(C(F)(F)F)c(-c2ccc(OC(F)(F)F)cc2)s1`, the Activity worked out at 85%.
The same measure, in the same setting: then `CCc1nc(Nc2cccnc2Oc2ccccc2C(C)(C)C)sc1-c1ccccc1`, with 78%; and `CC(C)(C)c1ccccc1Oc1ncccc1Nc1nc(C(F)(F)F)c(-c2ccccc2F)s1`, with 41%.
On to `Cc1ccc(-c2sc(Nc3cccnc3Oc3ccccc3C(C)(C)C)nc2C(F)(F)F)cc1`, for which the Activity came to 32%.
On the same count and under the same terms, then `CC(C)(C)c1ccccc1Oc1ncccc1Nc1ncc(-c2ccccc2)s1`, with 87%; and `COc1ccc(-c2sc(Nc3cccnc3Oc3ccccc3C(C)(C)C)nc2C(F)(F)F)cc1`, with 30%; and `CC(C)(C)c1ccccc1Oc1ncccc1Nc1nc(C(C)(C)C)c(-c2ccccc2)s1`, with 86%.
Same read-out and setting: then `CC(C)(C)c1ccccc1Oc1ncccc1Nc1nc(C(F)(F)F)c(-c2ccccc2)s1`, with 61%; and `Cc1noc(-c2sc(Nc3cccnc3Oc3ccccc3C(C)(C)C)nc2C(F)(F)F)n1`, with 56%.
Same read-out and setting: then `CC(C)(C)c1ccccc1Oc1ncccc1Nc1nc(C(F)(F)F)c(-c2ccc(C#N)cc2)s1`, with 79%.
Take `CC(C)(C)c1ccccc1Oc1ncccc1Nc1nc(C(F)(F)F)c(-c2cccc(O)c2)s1`: the Activity came to 98%.
